Test results published in patent US20210186972A1, “FORMULATIONS AND METHODS FOR THE PREVENTION AND TREATMENT OF TUMOR METASTASIS AND TUMORIGENESIS” (THE UNITED STATES OF AMERICA, AS REPRESENTED BY THE …, priority 2018, published 2021).

Columns and labels:
PC3M cells = test: 24-well Transwell MATRIGEL invasion assay, PC3M; type: cell-based, human; conditions: 0.6 μM, within 24 hours
Protocol: (§1) FIG. 3 is a bar graph showing that metarrestin inhibits MATRIGEL gelatinous protein mixture (BD Biosciences, Franklin Lakes, N.J.) invasion at below micromolar concentrations (0.6 μM) within 24 hours of treatment (* p<0.05 and ** p<0.01 in comparison to DMSO [control]). The invasion (%) is on the y-axis and the metarrestin [microM] is on the x-axis. The cell line PC3M is shown in white bars and the cell line PANC1 (human pancreas) is shown in black bars.
(§2) 24-well Transwell Permeable MATRIGEL gelatinous protein mixture Invasion assay: The effect of metarrestin on invasion activity of PANC1 and PC3M cells was measured using 24-well Transwell Permeable MATRIGEL gelatinous protein mixture Invasion Chambers with 8 μm pores (Corning, Cat #354480). Membranes were rehydrated with 500 μL of serum-free DMEM (Thermo Fisher, Cat #11965084) both inside the chamber and inside the well and incubated for two hours at 37° C., 5% CO2. Cells were detached, washed, resuspended in serum-free DMEM, counted, and diluted to a final concentration of 1×10^5 cells/mL in six separate 15 mL conical tubes. […] 750 μL of DMEM plus 10% FBS acting as a chemoattractant were placed in the basal wells. Plates were incubated at 37° C., 5% CO2 for 24 hours. […]

[1] = Repeat dose plasma pharmacokinetics, IP; type: in vivo, SCID Beige mice; conditions: for concentration at 24 h: SCID Beige, mouse, plasma, intraperitoneal
Protocol: (§3) Metarrestin was administered to female BALB/c mice, n=3 in the single dose and the repeat doses were administered to SCID-beige mice, n=3 per time point. The repeat dose study mice were given daily intraperitoneal injections for 4 weeks, with concentration measured 24 h after the last dose. Metarrestin was formulated in 5% NMP+20% PEG400+75% (10% […] in water).
BALB/c mice, 17-19 g, female, n=66, were purchased and had free access to food and water. They were dosed with metarrestin at 5 or 25 mg/kg (10 ml/kg) in 5% NMP [NMP (Sigma-Aldrich cat #270458), 20% PEG400 (Sigma-Aldrich cat #202398), and 75% 10% HPBCD (Sigma-Aldrich cat #H107)] via lower left abdominal quadrant injection (n=33 each dose). The animals were anesthetized with isoflurane and restrained manually at the designated time points. Approximately 120 μL of blood were taken from the animals into K2EDTA tubes via retro-orbital puncture. Blood samples were placed on ice and centrifuged (2,000 g, 5 min under 4° C.) to obtain plasma samples within 15 minutes. An aliquot of 20 μL plasma sample was protein-precipitated with 200 μL acetonitrile that contained 50 ng/mL IS (dexamethasone). The mixture was vortexed for 2 min, centrifuged at 14,000 rpm for 5 min, and an aliquot of 30 μL supernatant was diluted with 70 μL MeOH:H2O (1:1, v/v), then vortexed for 2 min. A 2 μL aliquot of supernatant was injected into UPLC-MS/MS. Analysis of samples was done with an LC-MS/MS-02 (API4000), Waters-BEH-C18 (2.1×50 mm, 1.7 μm) column, flow rate 0.6 mL/min, with a mobile phase consisting of solvent A (H2O— 0.025% FA-1 mM NH4OAc) and solvent B (MeOH— 0.025% FA-1 mM NH4OAc). The gradient was 10, 90, 90, 10% B at 0.30, 0.60, 1.20, 1.21, 1.80 (stop) min. Retention times for metarrestin and dexamethasone were 1.09 and 1.08 min, respectively. Calibration curves were established with known serially diluted concentrations of metarrestin before analysis. SCID Beige mice were purchased and dosed with metarrestin at 5 and 25 mg/kg, once daily at 24 hour intervals for 4 weeks as above. Twenty-four hours after the final dose, the concentrations of metarrestin in plasma were analyzed.

in vivo = test: in vivo; set-up: species or system BALB/c mice; conditions: mouse
Protocol: as §3
BALB/c mice, 17-19 g, female, n=66, were purchased and had free access to food and water. They were dosed with metarrestin at 5 or 25 mg/kg (10 ml/kg) in 5% NMP [NMP (Sigma-Aldrich cat #270458), 20% PEG400 (Sigma-Aldrich cat #202398), and 75% 10% HPBCD (Sigma-Aldrich cat #H107)] via lower left abdominal quadrant injection (n=33 each dose). The animals were anesthetized with isoflurane and restrained manually at the designated time points. Approximately 120 μL of blood were taken from the animals into K2EDTA tubes via retro-orbital puncture. Blood samples were placed on ice and centrifuged (2,000 g, 5 min under 4° C.) to obtain plasma samples within 15 minutes. An aliquot of 20 μL plasma sample was protein-precipitated with 200 μL acetonitrile that contained 50 ng/mL IS (dexamethasone). […] Twenty-four hours after the final dose, the concentrations of metarrestin in plasma were analyzed.

PANC1 cells = test: 24-well Transwell MATRIGEL invasion assay, PANC1; type: cell-based, human; conditions: 0.6 μM, within 24 hours
Protocol: as §1, §2

RPA194 and UBF = test: Western blot of RPA194 and UBF; type: cell-based; conditions: 1 μM, 24 hours, PANC1, PC3M, and HeLa
Protocol: Western blots were performed according to the manufacturer's protocols (Li-COR). Transfer membrane was from Millipore (cat. no. IPFL00010). The primary antibodies used were phospho-γ H2AX (Upstate 07-164, rabbit, 1:1000); p53 (Santa Cruz Biotechnology sc-6243 rabbit 1:500); UBF (F-9) (Santa Cruz Biotechnology, mouse, 1:500); RPA194 (Santa Cruz Biotechnology, sc-48385, mouse, 1:500); p53BP1 (Novus, NB100-304, rabbit 1:10,000); EF1a (Millipore 05-235, mouse, 1:1000), HA-Tag (C29F4, Cell Signaling, rabbit 1:1000) and actin (Sigma A5060, rabbit, 1:3000, A4700, mouse, 1:1000) as a loading control. LI-COR IRDye secondary antibodies (1:10,000), goat anti-mouse-680RD (926-68070), goat anti-mouse-800CW (926-32210), goat-anti-rabbit-680RD (926-68071), goat-anti-rabbit-800CW (926-32211) were used for visualization. Protein bands were detected using LI-COR Odyssey Image Studio (LI-COR Biosciences).
Psoralen crosslinks active accessible DNA under UV light without displacing nucleosomes or transcription factors, or changing chromatin states. Psoralen-crosslinked DNA moves slower on agarose gel and can be distinguished from the non-crosslinked DNA by Southern blots. […] To examine the interactions between Pol I transcription factors and rDNA, quantitative ChIP experiments were carried out using primer sets across promoter and coding regions of rDNA (FIG. 29-30E).

[2] = 25 mg/kg IP once daily for 4 weeks, 24 h after the final dose

In the case of `N=c1c2c(-c3ccccc3)c(-c3ccccc3)n(Cc3ccccc3)c2ncn1[C@H]1CC[C@H](O)CC1` [metarrestin], the “Invasion of PC3M cells” value (PC3M cells) is reported as “effectively blocked the invasion”, the Plasma concentration [1, 2] is reported as 1.46 µM and the concentration at 24 h ([1]; 5 mg/kg IP once daily for 4 weeks, 24 h after the final dose) is reported as 48.4 ng/mL. For the same compound, the concentration at 24 h [1, 2] was 692 ng/mL, the Risk of accumulation ([1]; single and multiple daily IP dosing, 5 and 25 mg/kg) was “predicted moderate risk of accumulation” and the half-life (in vivo; female, BALB/c, ip, 25 mg/kg) was 276 to 330 min. For the same compound, the Bioavailability (in vivo) was “high bioavailability”, the “Invasion of PANC1 cells” value (PANC1 cells) was “effectively blocked the invasion” and the “Amounts of Pol I large subunit RPA194 and UBF” value (RPA194 and UBF) was “did not change significantly”.
